Molecular target: Carbonic anhydrase 9 (Homo sapiens, UniProt Q16790)

Compound	Ki [nM]
NS(=O)(=O)c1ccc(CCNc2nc(Cl)nc(NCC(=O)O)n2)cc1	1
CC(C)Nc1nc(NCc2ccc(S(N)(=O)=O)cc2)nc(NC(C)C)n1	16
CCN(CC)c1nc(NCc2ccc(S(N)(=O)=O)cc2)nc(N(CC)CC)n1	7.5
CCCNc1nc(NCCC)nc(Nc2ccc(S(N)(=O)=O)cc2)n1	56
NS(=O)(=O)c1ccc(Nc2nc(Oc3ccccc3)nc(Oc3ccccc3)n2)cc1	254
